Data taken from patent US12570642B2, “GLP-IR modulating compounds” (Gilead Sciences, Inc., priority 2021, dated 2026).

Each compound was assayed against GLP-1R (Homo sapiens, UniProt P43220) (assay: GLP-1R Activation - cAMP Assay). Conditions: cAMP increase in CHO cells stably expressing GLP-1R; each compound run on one of the two cAMP assays (Assay 1 or Assay 2, not specified).
Type: cell-based
In short: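 CHO cells stably expressing GLP-1R, plated at 1,000 cells/well overnight, then equilibrated 1 h in HBSS with 20 mM Hepes and 0.1% BSA. Agonist added as 10-point dose response for 30 min at 37 °C. cAMP measured by HTRF (Cisbio Gs Dynamic kit); EC50 from sigmoidal fit.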

GLP-1R, sequence (P43220 24-463): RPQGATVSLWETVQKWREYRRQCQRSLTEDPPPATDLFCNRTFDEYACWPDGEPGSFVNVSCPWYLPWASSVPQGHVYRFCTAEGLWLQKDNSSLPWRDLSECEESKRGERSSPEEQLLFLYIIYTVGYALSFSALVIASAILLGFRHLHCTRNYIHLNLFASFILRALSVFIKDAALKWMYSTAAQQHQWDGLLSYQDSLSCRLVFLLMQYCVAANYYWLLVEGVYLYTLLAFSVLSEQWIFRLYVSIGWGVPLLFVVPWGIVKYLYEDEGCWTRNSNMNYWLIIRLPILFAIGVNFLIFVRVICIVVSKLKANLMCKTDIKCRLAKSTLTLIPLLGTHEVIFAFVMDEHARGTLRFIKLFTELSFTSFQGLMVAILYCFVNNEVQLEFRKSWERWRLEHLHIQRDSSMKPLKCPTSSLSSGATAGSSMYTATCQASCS

| EC50 | Structure (SMILES) |
| --- | --- |
| 0.539 nM | CC(F)(F)c1ccc(COc2cccc(-c3cc(F)c(Cc4nc5ccc(C(=O)O)cc5n4[C@@H]4COCC4(C)C)cc3F)n2)nc1 [Example 195, (S)-2-(4-(6-((5-(1,1-difluoroethyl)pyridin-2-yl)methoxy)pyridin-2-yl)-2,5-difluorobenzyl)-1-(4,4-dimethyltetrahydrofuran-3-yl)-1H-benzo[d]imidazole-6-carboxylic acid] |
| 90.9 nM | CC1(C)CC(n2c(Cc3cc(F)c(-c4cccc(OCc5ccc(C#N)cc5F)n4)cc3F)nc3ccc(C(=O)O)cc32)C(C)(C)O1 (stereo not drawn) [Example 199, 2-(4-(6-((4-cyano-2-fluorobenzyl)oxy)pyridin-2-yl)-2,5-difluorobenzyl)-1-(2,2,5,5-tetramethyltetrahydrofuran-3-yl)-1H-benzo[d]imidazole-6-carboxylic acid] |
| 0.508 nM | CC1(C)COCC1n1c(Cc2cc(F)c(-c3ccnc(OCc4ccc(C(F)(F)F)cc4F)n3)cc2F)nc2c(F)cc(C(=O)O)cc21 (stereo not drawn) [Example 200, 2-(2,5-difluoro-4-(2-((2-fluoro-4-(trifluoromethyl)benzyl)oxy)pyrimidin-4-yl)benzyl)-1-(4,4-dimethyltetrahydrofuran-3-yl)-4-fluoro-1H-benzo[d]imidazole-6-carboxylic acid] |
| 0.028 nM | CC1(C)COC[C@H]1n1c(Cc2cc(F)c(-c3cccc(OCc4ccc(Cl)cc4F)n3)cc2F)nc2c(F)cc(C(=O)O)cc21 [Example 201, (S)-2-(4-(6-((4-chloro-2-fluorobenzyl)oxy)pyridin-2-yl)-2,5-difluorobenzyl)-1-(4,4-dimethyltetrahydrofuran-3-yl)-4-fluoro-1H-benzo[d]imidazole-6-carboxylic acid] |
| 4.01 nM | N#Cc1ccc(COc2cccc(-c3cc(F)c(Cc4nc5ccc(C(=O)O)cc5n4C4COC5(COC5)C4)cc3F)n2)c(F)c1 (stereo not drawn) [Example 202, 2-(4-(6-((4-cyano-2-fluorobenzyl)oxy)pyridin-2-yl)-2,5-difluorobenzyl)-1-(2,5-dioxaspiro[3.4]octan-7-yl)-1H-benzo[d]imidazole-6-carboxylic acid] |
| 0.09 nM | CC1(C)COC[C@H]1n1c(Cc2cc(F)c(-c3cccc(OCc4cc(F)c(C#N)cc4F)n3)cc2F)nc2c(F)cc(C(=O)O)cc21 [Example 204, (S)-2-(4-(6-((4-cyano-2,5-difluorobenzyl)oxy)pyridin-2-yl)-2,5-difluorobenzyl)-1-(4,4-dimethyltetrahydrofuran-3-yl)-4-fluoro-1H-benzo[d]imidazole-6-carboxylic acid] |
| 0.249 nM | Cc1cc(Cc2nc3c(F)cc(C(=O)O)cc3n2[C@@H]2COCC2(C)C)c(F)cc1-c1cccc(OCc2ccc(C#N)cc2F)n1 [Example 208, (S)-2-(4-(6-((4-cyano-2-fluorobenzyl)oxy)pyridin-2-yl)-2-fluoro-5-methylbenzyl)-1-(4,4-dimethyltetrahydrofuran-3-yl)-4-fluoro-1H-benzo[d]imidazole-6-carboxylic acid] |
| 12.3 nM | N#Cc1ccc(COc2cccc(-c3ccc(Cc4nc5ccc(C(=O)O)cc5n4[C@@H]4CCOC4)c(F)c3)n2)c(F)c1 [Example 209, (R)-2-(4-(6-((4-cyano-2-fluorobenzyl)oxy)pyridin-2-yl)-2-fluorobenzyl)-1-(tetrahydrofuran-3-yl)-1H-benzo[d]imidazole-6-carboxylic acid] |
| 0.258 nM | Cc1cc(Cc2nc3c(F)cc(C(=O)O)cc3n2[C@@H]2COCC2(C)C)c(F)cc1-c1ccnc(OCc2ccc(Cl)cc2)n1 [Example 211, (S)-2-(4-(2-((4-chlorobenzyl)oxy)pyrimidin-4-yl)-2-fluoro-5-methylbenzyl)-1-(4,4-dimethyltetrahydrofuran-3-yl)-4-fluoro-1H-benzo[d]imidazole-6-carboxylic acid] |
| 0.379 nM | Cc1cc(Cc2nc3c(F)cc(C(=O)O)cc3n2[C@@H]2COCC2(C)C)c(Cl)cc1-c1ccnc(OCc2ccc(Cl)cc2)n1 [Example 212, (S)-2-(2-chloro-4-(2-((4-chlorobenzyl)oxy)pyrimidin-4-yl)-5-methylbenzyl)-1-(4,4-dimethyltetrahydrofuran-3-yl)-4-fluoro-1H-benzo[d]imidazole-6-carboxylic acid] |
| 0.299 nM | COCCn1c(Cc2cc(F)c(-c3cccc(OCc4cnc(-n5ccnn5)cc4Cl)n3)cc2F)nc2ccc(C(=O)O)cc21 [Example 214, 2-(4-(6-((4-chloro-6-(1H-1,2,3-triazol-1-yl)pyridin-3-yl)methoxy)pyridin-2-yl)-2,5-difluorobenzyl)-1-(2-methoxyethyl)-1H-benzo[d]imidazole-6-carboxylic acid] |
| 0.189 nM | Cc1cc(Cc2nc3ccc(C(=O)O)cc3n2[C@@H]2COCC2(C)C)c(F)cc1-c1ccnc(OCc2ccc(Cl)cc2)n1 [Example 219, (S)-2-(4-(2-((4-chlorobenzyl)oxy)pyrimidin-4-yl)-2-fluoro-5-methylbenzyl)-1-(4,4-dimethyltetrahydrofuran-3-yl)-1H-benzo[d]imidazole-6-carboxylic acid] |

Continued, compound first:

| Structure (SMILES) | EC50 |
| --- | --- |
| CC1(C)COC[C@H]1n1c(Cc2c(F)cc(-c3ccnc(OCc4ccc(Cl)cc4F)n3)c(F)c2F)nc2c(F)cc(C(=O)O)cc21 [Example 196, (S)-2-(4-(2-((4-chloro-2-fluorobenzyl)oxy)pyrimidin-4-yl)-2,3,6-trifluorobenzyl)-1-(4,4-dimethyltetrahydrofuran-3-yl)-4-fluoro-1H-benzo[d]imidazole-6-carboxylic acid] | 0.508 nM |
| CC[C@@H]1OCC[C@H]1n1c(Cc2cc(F)c(-c3cccc(OCc4ccc(C#N)cc4F)n3)cc2F)nc2ccc(C(=O)O)cc21 [Example 197, 2-(4-(6-((4-cyano-2-fluorobenzyl)oxy)pyridin-2-yl)-2,5-difluorobenzyl)-1-((2S,3R)-2-ethyltetrahydrofuran-3-yl)-1H-benzo[d]imidazole-6-carboxylic acid] | 6.62 nM |
| CC1(C)COC[C@H]1n1c(Cc2cc(F)c(-c3ccnc(OCc4ccc(C#N)cc4F)n3)cc2F)nc2ccc(C(=O)O)cc21 [Example 198, (S)-2-(4-(2-((4-cyano-2-fluorobenzyl)oxy)pyrimidin-4-yl)-2,5-difluorobenzyl)-1-(4,4-dimethyltetrahydrofuran-3-yl)-1H-benzo[d]imidazole-6-carboxylic acid] | 0.508 nM |
| N#Cc1ccc(COc2cccc(-c3cc(F)c(Cc4nc5ccc(C(=O)O)cc5n4C4COC5(CC5)C4)cc3F)n2)c(F)c1 (stereo not drawn) [Example 203, 2-(4-(6-((4-cyano-2-fluorobenzyl)oxy)pyridin-2-yl)-2,5-difluorobenzyl)-1-(4-oxaspiro[2.4]heptan-6-yl)-1H-benzo[d]imidazole-6-carboxylic acid] | 38.3 nM |
| CC1(C)COC[C@H]1n1c(Cc2cc(F)c(-c3ccnc(OCc4ccc(C#N)cc4F)n3)cc2F)nc2c(F)cc(C(=O)O)cc21 [Example 205, (S)-2-(4-(2-((4-cyano-2-fluorobenzyl)oxy)pyrimidin-4-yl)-2,5-difluorobenzyl)-1-(4,4-dimethyltetrahydrofuran-3-yl)-4-fluoro-1H-benzo[d]imidazole-6-carboxylic acid] | 0.097 nM |
| CC1(C)COC[C@H]1n1c(Cc2cc(F)c(-c3nccc(OCc4ccc(C#N)cc4F)n3)cc2F)nc2c(F)cc(C(=O)O)cc21 [Example 206, (S)-2-(4-(4-((4-cyano-2-fluorobenzyl)oxy)pyrimidin-2-yl)-2,5-difluorobenzyl)-1-(4,4-dimethyltetrahydrofuran-3-yl)-4-fluoro-1H-benzo[d]imidazole-6-carboxylic acid] | 0.191 nM |
| Cc1cc(Cc2nc3c(F)cc(C(=O)O)cc3n2[C@@H]2COCC2(C)C)c(F)cc1-c1ccc(F)c(OCc2ccc(C#N)cc2F)n1 [Example 207, (S)-2-(4-(6-((4-cyano-2-fluorobenzyl)oxy)-5-fluoropyridin-2-yl)-2-fluoro-5-methylbenzyl)-1-(4,4-dimethyltetrahydrofuran-3-yl)-4-fluoro-1H-benzo[d]imidazole-6-carboxylic acid] | 0.168 nM |
| N#Cc1ccc(COc2cccc(-c3ccc(Cc4nc5ccc(C(=O)O)cc5n4[C@H]4CCOC4)c(F)c3)n2)c(F)c1 [Example 210, (S)-2-(4-(6-((4-cyano-2-fluorobenzyl)oxy)pyridin-2-yl)-2-fluorobenzyl)-1-(tetrahydrofuran-3-yl)-1H-benzo[d]imidazole-6-carboxylic acid] | 14.1 nM |
| COCCn1c(Cc2c(F)cc(-c3ccc(F)c(OCc4cnc(-n5ccnn5)cc4Cl)n3)c(F)c2F)nc2c(F)cc(C(=O)O)cc21 [Example 213, 2-(4-(6-((4-chloro-6-(1H-1,2,3-triazol-1-yl)pyridin-3-yl)methoxy)-5-fluoropyridin-2-yl)-2,3,6-trifluorobenzyl)-4-fluoro-1-(2-methoxyethyl)-1H-benzo[d]imidazole-6-carboxylic acid] | 0.042 nM |
| COCCn1c(Cc2cc(F)c(-c3ccc(F)c(OCc4cnc(-n5ccnn5)cc4Cl)n3)cc2F)nc2ccc(C(=O)O)cc21 [Example 215, 2-(4-(6-((4-chloro-6-(1H-1,2,3-triazol-1-yl)pyridin-3-yl)methoxy)-5-fluoropyridin-2-yl)-2,5-difluorobenzyl)-1-(2-methoxyethyl)-1H-benzo[d]imidazole-6-carboxylic acid] | 0.21 nM |
| Cc1cc(Cc2nc3ccc(C(=O)O)cc3n2[C@@H]2COCC2(C)C)c(Cl)cc1-c1ccnc(OCc2ccc(Cl)cc2)n1 [Example 218, (S)-2-(2-chloro-4-(2-((4-chlorobenzyl)oxy)pyrimidin-4-yl)-5-methylbenzyl)-1-(4,4-dimethyltetrahydrofuran-3-yl)-1H-benzo[d]imidazole-6-carboxylic acid] | 0.279 nM |
| O=C(O)c1cc(F)c2nc(Cc3cc(F)c(-c4cccc(OCc5ccc(Cl)cc5F)n4)cc3F)n(C3COCC34CC4)c2c1 (stereo not drawn) [Example 220, 2-(4-(6-((4-chloro-2-fluorobenzyl)oxy)pyridin-2-yl)-2,5-difluorobenzyl)-4-fluoro-1-(5-oxaspiro[2.4]heptan-7-yl)-1H-benzo[d]imidazole-6-carboxylic acid] | 0.216 nM |
